Assay results published in PubChem BioAssay AID1963826 (Molecular Pharmacology Branch, DTP, NCI, 2024).

System: 926638-142-R-J1-PDC complex spheroid viability
Assay: Anticancer human tumor 926638-142-R-J1-PDC patient-derived endometrial carcinoma cell line growth inhibition [POLQ]
Conditions: for IC50: curve of first compound; for viability, T/C: stronger effect = lower value
Method in brief: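 PDC + HUVEC + MSC complex spheroids; POLQ inhibitors ± partner drugs; top conc. at/near clinical Cmax, else 10 microM (SN-38 1 microM), half-log dilutions; 37 degrees C, 5% CO2.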

[1] = second compound 0.0316 µM, first compound 0.0316 µM
[2] = second compound 0.0316 µM, first compound 0.1 µM
[3] = second compound 0.0316 µM, first compound 0.316 µM
[4] = second compound 0.0316 µM, first compound 1 µM
[5] = second compound 0.1 µM, first compound 0.0316 µM
[6] = second compound 0.1 µM, first compound 0.1 µM
[7] = second compound 0.1 µM, first compound 0.316 µM
[8] = second compound 0.1 µM, first compound 1 µM
[9] = second compound 0.316 µM, first compound 0.0316 µM
[10] = second compound 0.316 µM, first compound 0.1 µM
[11] = second compound 0.316 µM, first compound 0.316 µM
[12] = second compound 0.316 µM, first compound 1 µM
[13] = second compound 1 µM, first compound 0.0316 µM
[14] = second compound 1 µM, first compound 0.1 µM
[15] = second compound 1 µM, first compound 0.316 µM
[16] = second compound 1 µM, first compound 1 µM
[17] = second compound 3.16 µM, first compound 0.0316 µM
[18] = second compound 3.16 µM, first compound 0.1 µM
[19] = second compound 3.16 µM, first compound 0.316 µM
[20] = second compound 3.16 µM, first compound 1 µM
[21] = second compound 10 µM, first compound 0.0316 µM
[22] = second compound 10 µM, first compound 0.1 µM
[23] = second compound 10 µM, first compound 0.316 µM
[24] = second compound 10 µM, first compound 1 µM
[25] = second compound 0.0316 µM, first compound 3.16 µM
[26] = second compound 0.0316 µM, first compound 10 µM
[27] = second compound 0.1 µM, first compound 3.16 µM
[28] = second compound 0.1 µM, first compound 10 µM
[29] = second compound 0.316 µM, first compound 3.16 µM
[30] = second compound 0.316 µM, first compound 10 µM
[31] = second compound 1 µM, first compound 3.16 µM
[32] = second compound 1 µM, first compound 10 µM
[33] = second compound 3.16 µM, first compound 3.16 µM
[34] = second compound 3.16 µM, first compound 10 µM
[35] = second compound 10 µM, first compound 3.16 µM
[36] = second compound 10 µM, first compound 10 µM
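Note: spheroids exposed to drugs for one week before readout.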
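Throughout, for viability, T/C: percent viability relative to DMSO vehicle control wells set as 100%.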

Work on `CCc1c2c(nc3ccc(O)cc13)-c1cc3c(c(=O)n1C2)COC(=O)[C@]3(O)CC` + Cc1cccc(N(C)C(=O)C2C(O)CCN2c2nc(C)cc(C(F)(F)F)c2C#N)c1 yielded an IC50 (second compound 0.0316 µM) of 6.18 nM, an IC50 (second compound 0.1 µM) of 11.9 nM and an IC50 (second compound 0.316 µM) of 12 nM. It also gave an IC50 (second compound 1 µM) of 9.83 nM, an IC50 (second compound 3.16 µM) of 12.2 nM and an IC50 (second compound 10 µM) of 10.7 nM. The viability, T/C (second compound 0.0316 µM, first compound 0.00316 µM) was 55.6%, the viability, T/C (second compound 0.0316 µM, first compound 0.01 µM) was 43.5% and the viability, T/C [1] was 38%. For the same compound, the viability, T/C [2] was 17.1%, the viability, T/C [3] was 11.1% and the viability, T/C [4] was 5.47%. The viability, T/C (second compound 0.1 µM, first compound 0.00316 µM) was 75.3%, the viability, T/C (second compound 0.1 µM, first compound 0.01 µM) was 51.9% and the viability, T/C [5] was 35.1%. For the same compound, the viability, T/C [6] was 17.8%, the viability, T/C [7] was 9.35% and the viability, T/C [8] was 4.26%. The viability, T/C (second compound 0.316 µM, first compound 0.00316 µM) was 69.8%, the viability, T/C (second compound 0.316 µM, first compound 0.01 µM) was 52.8% and the viability, T/C [9] was 35.6%. The viability, T/C [10] was 19.3%, the viability, T/C [11] was 12.3% and the viability, T/C [12] was 4.42%. For the same compound, the viability, T/C (second compound 1 µM, first compound 0.00316 µM) was 69.6%, the viability, T/C (second compound 1 µM, first compound 0.01 µM) was 50.9% and the viability, T/C [13] was 29.8%. For the same compound, the viability, T/C [14] was 17%, the viability, T/C [15] was 13.9% and the viability, T/C [16] was 4.44%. The viability, T/C (second compound 3.16 µM, first compound 0.00316 µM) was 62.8%, the viability, T/C (second compound 3.16 µM, first compound 0.01 µM) was 54% and the viability, T/C [17] was 35.1%. The viability, T/C [18] was 21.1%, the viability, T/C [19] was 9.95% and the viability, T/C [20] was 5.61%. For the same compound, the viability, T/C (second compound 10 µM, first compound 0.00316 µM) was 69.4%, the viability, T/C (second compound 10 µM, first compound 0.01 µM) was 50.5% and the viability, T/C [21] was 34.6%. It also gave a viability, T/C [22] of 22.5%, a viability, T/C [23] of 10.4% and a viability, T/C [24] of 4.3%.

Compound `CC1COCCN1c1cc(C2(O)CC3CCC(C2)O3)c2cnn(-c3ccn[nH]3)c2n1` (stereo not drawn) + COC1C(OC(N)=O)C(O)C(Oc2ccc3c(O)c(NC(=O)c4ccc(O)c(CC=C(C)C)c4)c(=O)oc3c2C)OC1(C)C has an IC50 (second compound 0.0316 µM) of 212 nM, an IC50 (second compound 0.1 µM) of 204 nM and an IC50 (second compound 0.316 µM) of 200 nM. It also gave an IC50 (second compound 1 µM) of 217 nM, an IC50 (second compound 3.16 µM) of 222 nM and an IC50 (second compound 10 µM) of 181 nM. It also gave a viability, T/C [1] of 106%, a viability, T/C [2] of 74.5% and a viability, T/C [3] of 35.6%. For the same compound, the viability, T/C [4] was 17.5%, the viability, T/C [25] was 7.23% and the viability, T/C [26] was 1.82%. It also gave a viability, T/C [5] of 108%, a viability, T/C [6] of 64.9% and a viability, T/C [7] of 46%. It also gave a viability, T/C [8] of 12.8%, a viability, T/C [27] of 6.56% and a viability, T/C [28] of 1.94%. The viability, T/C [9] was 102%, the viability, T/C [10] was 69.1% and the viability, T/C [11] was 37.4%. For the same compound, the viability, T/C [12] was 16.5%, the viability, T/C [29] was 7.59% and the viability, T/C [30] was 1.6%. For the same compound, the viability, T/C [13] was 86.9%, the viability, T/C [14] was 75.8% and the viability, T/C [15] was 36.8%. It also gave a viability, T/C [16] of 12.9%, a viability, T/C [31] of 7.07% and a viability, T/C [32] of 1.87%. It also gave a viability, T/C [17] of 90.5%, a viability, T/C [18] of 77.7% and a viability, T/C [19] of 36.5%. For the same compound, the viability, T/C [20] was 15%, the viability, T/C [33] was 6.73% and the viability, T/C [34] was 2%. For the same compound, the viability, T/C [21] was 91.4%, the viability, T/C [22] was 69.4% and the viability, T/C [23] was 31.1%. For the same compound, the viability, T/C [24] was 13%, the viability, T/C [35] was 7.88% and the viability, T/C [36] was 1.74%.

For `O=C(Nc1ccc(O)c(NS(=O)(=O)c2ccc(F)cc2)c1)c1ccc(-c2ccccc2)cc1` + Cc1cccc(N(C)C(=O)C2C(O)CCN2c2nc(C)cc(C(F)(F)F)c2C#N)c1, the IC50 (second compound 0.0316 µM) was > 10000 nM, the IC50 (second compound 0.1 µM) was > 10000 nM and the IC50 (second compound 0.316 µM) was > 10000 nM. The IC50 (second compound 1 µM) was > 10000 nM, the IC50 (second compound 3.16 µM) was > 10000 nM and the IC50 (second compound 10 µM) was > 10000 nM. The viability, T/C [1] was 93.9%, the viability, T/C [2] was 93.2% and the viability, T/C [3] was 91.6%. The viability, T/C [4] was 91%, the viability, T/C [25] was 90.5% and the viability, T/C [26] was 62.5%. It also gave a viability, T/C [5] of 104%, a viability, T/C [6] of 78.6% and a viability, T/C [7] of 81.2%. For the same compound, the viability, T/C [8] was 94%, the viability, T/C [27] was 90.1% and the viability, T/C [28] was 62.5%. For the same compound, the viability, T/C [9] was 94.3%, the viability, T/C [10] was 105% and the viability, T/C [11] was 86.6%. For the same compound, the viability, T/C [12] was 87.8%, the viability, T/C [29] was 94.5% and the viability, T/C [30] was 67.2%. The viability, T/C [13] was 90.3%, the viability, T/C [14] was 94.8% and the viability, T/C [15] was 88.1%. It also gave a viability, T/C [16] of 96.9%, a viability, T/C [31] of 85.6% and a viability, T/C [32] of 73.1%. The viability, T/C [17] was 79.6%, the viability, T/C [18] was 91.5% and the viability, T/C [19] was 82.1%. For the same compound, the viability, T/C [20] was 97.6%, the viability, T/C [33] was 95.7% and the viability, T/C [34] was 68.5%. The viability, T/C [21] was 79.1%, the viability, T/C [22] was 75.8% and the viability, T/C [23] was 74.6%. It also gave a viability, T/C [24] of 78.7%, a viability, T/C [35] of 80.7% and a viability, T/C [36] of 55.7%.

For `COc1cc2cc(C(=O)CCC(=O)O)sc2cc1OC` + Nc1ccc(C#CCN(C(=O)Cc2ncc(C(F)(F)F)cc2C(F)(F)F)c2ccc(F)cc2)nn1, the IC50 (second compound 0.0316 µM) was > 10000 nM, the IC50 (second compound 0.1 µM) was > 10000 nM and the IC50 (second compound 0.316 µM) was > 10000 nM. For the same compound, the IC50 (second compound 1 µM) was > 10000 nM, the IC50 (second compound 3.16 µM) was > 10000 nM and the IC50 (second compound 10 µM) was > 10000 nM. For the same compound, the viability, T/C [1] was 101%, the viability, T/C [2] was 99.4% and the viability, T/C [3] was 104%. For the same compound, the viability, T/C [4] was 98.5%, the viability, T/C [25] was 104% and the viability, T/C [26] was 70%. It also gave a viability, T/C [5] of 111%, a viability, T/C [6] of 97.8% and a viability, T/C [7] of 91.1%. The viability, T/C [8] was 96.4%, the viability, T/C [27] was 104% and the viability, T/C [28] was 103%. The viability, T/C [9] was 110%, the viability, T/C [10] was 105% and the viability, T/C [11] was 107%. For the same compound, the viability, T/C [12] was 102%, the viability, T/C [29] was 112% and the viability, T/C [30] was 99.9%. For the same compound, the viability, T/C [13] was 111%, the viability, T/C [14] was 108% and the viability, T/C [15] was 90.4%. It also gave a viability, T/C [16] of 101%, a viability, T/C [31] of 112% and a viability, T/C [32] of 85.1%. For the same compound, the viability, T/C [17] was 110%, the viability, T/C [18] was 93.9% and the viability, T/C [19] was 105%. The viability, T/C [20] was 101%, the viability, T/C [33] was 104% and the viability, T/C [34] was 88.4%. It also gave a viability, T/C [21] of 89.3%, a viability, T/C [22] of 101% and a viability, T/C [23] of 83.4%. It also gave a viability, T/C [24] of 85.2%, a viability, T/C [35] of 96.4% and a viability, T/C [36] of 87.8%.
